The source of these data is patent US20260138978A1, “POSITIVE ALLOSTERIC MODULATORS OF THE MUSCARINIC ACETYLCHOLINE RECEPTOR M1” (Vanderbilt University, priority 2022, published 2026).

Some results are limits rather than exact numbers.

In general, EC50 refers to the concentration that produces a half-maximal response. One may read the Emax as the size of the effect at its maximum, as opposed to the concentration needed.

Experiment [1] addresses T1, human mAChRM1 (Homo sapiens, UniProt P11229).
T1 construct: host or cells: CHO-K1
T1 sequence (P11229 1-460): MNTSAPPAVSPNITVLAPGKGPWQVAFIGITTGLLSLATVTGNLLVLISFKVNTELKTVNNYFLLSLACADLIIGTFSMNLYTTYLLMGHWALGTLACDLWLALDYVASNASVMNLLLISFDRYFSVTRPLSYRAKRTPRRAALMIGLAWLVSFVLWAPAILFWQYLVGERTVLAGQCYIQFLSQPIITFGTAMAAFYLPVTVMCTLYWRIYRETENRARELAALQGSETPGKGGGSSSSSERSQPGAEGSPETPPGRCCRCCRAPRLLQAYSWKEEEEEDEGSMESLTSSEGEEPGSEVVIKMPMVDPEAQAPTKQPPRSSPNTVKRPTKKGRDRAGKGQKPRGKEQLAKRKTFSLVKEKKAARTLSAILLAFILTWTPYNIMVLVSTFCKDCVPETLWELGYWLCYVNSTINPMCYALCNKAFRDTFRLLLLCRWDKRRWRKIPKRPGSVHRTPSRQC
The experiment can be described thus: mAChR M1 cell-based functional assay (calcium mobilization), agonist activity upon compound addition, Emax relative to acetylcholine maximum. The conditions noted are these: for Emax: relative to the maximum for acetylcholine. The text has this:
Lack of agonist activity may be measured as weak or no increase in calcium fluorescence in mAChRM1-transfected CHO-K1 cells in the presence of the compound, compared to the response of equivalent CHO-K1 cells in the absence of the compound. Lack of mAChRM1 agonist activity may be determined as a percent response relative to acetylcholine. For example, a disclosed compound may have less than or equal to 30%, 25%, 20%, 15%, 10%, 5%, or 1% mAChRM1 agonist activity relative to acetylcholine. A disclosed compound may have substantially no mAChRM1 agonist activity. […] The absence of mAChRM1 agonist activity may contribute to the avoidance of cholinergic adverse effect liability.
(§1) Chinese hamster ovary (CHO-K1) cells stably expressing rat (r)M1 were purchased from the American Type Culture Collection and cultured according to their indicated protocol. CHO cells stably expressing human (h)M2, hM3, and hM5 were described previously (Levey, et al., 1991); hM1 and hM4 cDNAs were purchased from Missouri S&T cDNA Resource; rM4 cDNA was provided by T. I. Bonner (National Institutes of Health, Bethesda, MD). rM2 and rM3 were cloned from a rat brain cDNA library and sequence verified. hM1, rM2, rM3, hM4, and rM4 cDNAs were used to stably transfect CHO-K1 cells purchased from the American Type Culture Collection using Lipofectamine 2000. To make stable rM2, hM2, rM3, hM4. and rM4 cell lines for use in calcium mobilization assays, these cells also were stably transfected with a chimeric G-protein (Gqi5) (provided by B. R. Conklin, University of California, San Francisco) using Lipofectamine 2000. rM1, hM1, rM3, hM3, rM5, and hM5 cells were grown in Ham's F-12 medium containing 10% heat-inactivated fetal bovine serum (FBS), 20 mM HEPES, and 50 μg/mL G418 sulfate. rM2-Gqi5, hM2-Gqi5, and hM4-Gqi5 cells were grown in the same medium also containing 500 µg/mL Hygromycin B. Stable rM4-Gqi5 cells were grown in DMEM containing 10% heat-inactivated FBS, 20 mM HEPES, 400 μg/mL G418 sulfate, and 500 μg/mL Hygromycin B.
(§2) For high throughput measurement of agonist-evoked increases in intracellular calcium, CHO-K1 cells stably expressing muscarinic receptors were plated in growth medium lacking G418 and hygromycin at 15,000 cells/[…] in Greiner 384-well black-walled, tissue culture (TC)-treated, clear-bottom plates (VWR). Cells were incubated overnight at 37° C. and 5% CO2. The next day, cells were washed using an ELX 405 (BioTek) with four washes (80 μL) of assay buffer then aspirated to 20 μL. Next, 20 μL of 16 μM Fluo-4/acetoxymethyl ester (Invitrogen, Carlsbad, CA) prepared as a 2.3 mM stock in DMSO and mixed in a 1:1 ratio with 10% (w/v) Pluronic F-127 and diluted in assay buffer was added to the wells and the cell plates were incubated for 50 min at 37° C. and 5% CO2. Dye was removed by washing with the ELX 405 (four 80 μL washes of assay buffer) then aspirated to 20 μL. Compound master plates were formatted in an 11 point CR^c format (1:3 dilutions) in 100% DMSO with a starting concentration of 10 mM using the BRAVO liquid handler (Agilent). Test compound CRCs were then transferred to daughter plates (240 nL) using the Echo acoustic plate reformatter (Labcyte, Sunnyvale, CA) and then diluted into assay buffer ([…]) to a 2× stock using a Thermo Fisher Combi (Thermo Fisher Scientific, Waltham, MA).
Calcium flux was measured using the Functional Drug Screening System (FDSS) 6000 (Hamamatsu Corporation, Tokyo, Japan) as an increase in the fluorescent static ratio. Compounds were applied to cells (20 μL, 2×) using the automated system of the FDSS 6000 at 4 s into the 300 s protocol and the data were collected at 1 Hz. […] Agonist activity was analyzed as a concentration-dependent increase in calcium mobilization upon compound addition. Emax values for agonist activity are expressed relative to the maximum for acetylcholine. Positive allosteric modulator activity was analyzed as a concentration-dependent increase in the EC20 acetylcholine response. […]

For experiment [2], the target named is T1, human mAChRM1. The experiment can be described thus: mAChR M1 cell-based functional assay (calcium mobilization), positive allosteric modulator activity: increase in the EC20 acetylcholine response. The conditions noted are these: for Emax: PAM mode; for EC50: increase in the EC20 acetylcholine response, read-out: PAM Activity Human M1 EC50.
Text: as §1, §2
Calcium flux was measured using the Functional Drug Screening System (FDSS) 6000 (Hamamatsu Corporation, Tokyo, Japan) as an increase in the fluorescent static ratio. Compounds were applied to cells (20 μL, 2×) using the automated system of the FDSS 6000 at 4 s into the 300 s protocol and the data were collected at 1 Hz. […] Agonist activity was analyzed as a concentration-dependent increase in calcium mobilization upon compound addition. Emax values for agonist activity are expressed relative to the maximum for acetylcholine. Positive allosteric modulator activity was analyzed as a concentration-dependent increase in the EC20 acetylcholine response. Antagonist activity was analyzed as a concentration-dependent decrease in the EC80 acetylcholine response. Concentration-response curves were generated using a four-parameter logistical equation in XLfit curve fitting software (IDBS, Bridgewater, NJ) for Excel (Microsoft, Redmond, WA) or Prism (GraphPad Software, Inc., San Diego, CA).
Activity (EC50 and Emax) was determined in the mAChRM1 cell-based functional assay as described above and the data are shown in Table 16. The compound numbers correspond to the compound numbers used in Table 15.
On the technique in general: A change in cytosolic calcium serves as a functional read-out for many receptors and channels.

The mark [3] stands for this setting: calcium mobilization upon compound addition.

As for `[2H]C([2H])([2H])n1cc2c(-c3cc(C)c(CN4Cc5ncccc5C4=O)c(F)c3)ccc(C(C)(C)O)c2n1` (single isomer, unassigned) [Compound 15, 6-(2-fluoro-4-(7-(2-hydroxypropan-2-yl)-2-(methyl-d3)-2H-indazol-4-yl)-6-methylbenzyl)-6,7-dihydro-5H-pyrrolo[3,4-b]pyridin-5-one], the EC50 in experiment [1] (setting [3]) was determined as 2990 nM; in experiment [2], 81 nM. In addition, the figures for the Emax in experiment [1] and in experiment [2] were 41% and 77%, respectively.
Regarding `[2H]C([2H])([2H])n1cc2c(-c3cc(F)c(CN4Cc5ncccc5C4=O)c(C4CC4)c3)ccc(C(C)(C)O)c2n1` (single isomer, unassigned) [Compound 16, 6-(2-cyclopropyl-6-fluoro-4-(7-(2-hydroxypropan-2-yl)-2-(methyl-d3)-2H-indazol-4-yl)benzyl)-6,7-dihydro-5H-pyrrolo[3,4-b]pyridin-5-one], the EC50 stood at 2060 nM in experiment [1] (setting [3]) and 66 nM in experiment [2]. Moreover, the Emax came out at 54% in experiment [1] and 78% in experiment [2].
Take `[2H]C1([2H])c2ncccc2C(=O)N1Cc1c(F)cc(-c2ccc(C(C)(C)O)c3nn(C)cc23)cc1C1CC1` (single isomer, unassigned) [Compound 143, 6-(2-cyclopropyl-6-fluoro-4-(7-(2-hydroxypropan-2-yl)-2-methyl-2H-indazol-4-yl)benzyl)-6,7-dihydro-5H-pyrrolo[3,4-b]pyridin-5-one-7,7-d2]: the EC50 was 5300 nM in experiment [1] (setting [3]) and 96 nM in experiment [2]. The Emax was found to be 68% in experiment [1] and 83% in experiment [2].
Turning to `[2H]C1([2H])c2ncccc2C(=O)N1Cc1c(C)cc(-c2ccc(C(C)(C)O)c3nn(C)cc23)cc1F` (single isomer, unassigned) [Compound 144, 6-(2-fluoro-4-(7-(2-hydroxypropan-2-yl)-2-methyl-2H-indazol-4-yl)-6-methylbenzyl)-6,7-dihydro-5H-pyrrolo[3,4-b]pyridin-5-one-7,7-d2], the EC50 in experiment [1] (setting [3]) was 5570 nM; in experiment [2], 101 nM. Moreover, the values for the Emax in experiment [1] and in experiment [2] were 58% and 89%, respectively.
In the same order, the values of `[2H]C1([2H])c2ncccc2C(=O)N1Cc1c(C)cc(-c2ccc(C(C)(C)O)c3nn(C([2H])([2H])[2H])cc23)cc1F` (single isomer, unassigned) [Compound 146, 6-(2-fluoro-4-(7-(2-hydroxypropan-2-yl)-2-(methyl-d3)-2H-indazol-4-yl)-6-methylbenzyl)-6,7-dihydro-5H-pyrrolo[3,4-b]pyridin-5one-7,7-d2] are at least 10000 nM, 120 nM, 28% and 65%.
The like results for `[2H]C1([2H])c2ncccc2C(=O)N1Cc1c(F)cc(-c2ccc(C(C)(C)O)c3nn(C([2H])([2H])[2H])cc23)cc1C1CC1` (single isomer, unassigned) [Compound 147, 6-(2-cyclopropyl-6-fluoro-4-(7-(2-hydroxypropan-2-yl)-2-(methyl-d3)-2H-indazol-4-yl)benzyl)-6,7-dihydro-5H-pyrrolo[3,4-b]pyridin-5-one-7,7-d2] were, in that order, 6190 nM, 74 nM, 43% and 62%.
The like results for `Cn1cc2c(-c3cc(F)c(CN4Cc5ncccc5C4=O)c(F)c3)ccc(C(C)(C)O)c2n1` [Compound 1, 6-(2,6-difluoro-4-(7-(2-hydroxypropan-2-yl)-2-methyl-2H-indazol-4-yl)benzyl)-6,7-dihydro-5H-pyrrolo[3,4-b]pyridin-5-one] were, in that order, 2740 nM, 59 nM, 22% and 78%.
With `Cc1cc(-c2ccc(C(C)(C)O)c3nn(C)cc23)cc(F)c1CN1Cc2ncccc2C1=O` [Compound 2, 6-(2-Fluoro-4-(7-(2-hydroxypropan-2-yl)-2-methyl-2H-indazol-4-yl)-6-methylbenzyl)-6,7-dihydro-5H-pyrrolo[3,4-b]pyridin-5-one], the EC50 in experiment [1] (setting [3]) stood at 8350 nM; in experiment [2], 65 nM. Moreover, the Emax turned out to be 33% in experiment [1] and 87% in experiment [2].
The like results for `Cn1cc2c(-c3cc(F)c(CN4Cc5ncccc5C4=O)c(C4CC4)c3)ccc(C(C)(C)O)c2n1` [Compound 3, 6-(2-cyclopropyl-6-fluoro-4-(7-(2-hydroxypropan-2-yl)-2-methyl-2H-indazol-4-yl)benzyl)-6,7-dihydro-5H-pyrrolo[3,4-b]pyridin-5-one] were, in that order, 5220 nM, 45 nM, 47% and 86%.
In the case of `[2H]C([2H])([2H])n1cc2c(-c3cc(F)c(CN4Cc5ncccc5C4=O)c(F)c3)ccc(C(C)(C)O)c2n1` [Compound 4, 6-(2,6-difluoro-4-(7-(2-hydroxypropan-2-yl)-2-(methyl-d3)-2H-indazol-4-yl)benzyl)-6,7-dihydro-5H-pyrrolo[3,4-b]pyridin-5-one], the values for the EC50 in experiment [1] (setting [3]) and in experiment [2] were 1910 nM and 124 nM, respectively. Moreover, the figures for the Emax in experiment [1] and in experiment [2] were 49% and 83%, respectively.
As for `CC(C)(O)c1ccc(-c2cc(F)c(CN3Cc4ncccc4C3=O)c(F)c2)cc1` [Compound 5, 6-((3,5-difluoro-4′-(2-hydroxypropan-2-yl)-[1,1′-biphenyl]-4-yl)methyl)-6,7-dihydro-5H-pyrrolo[3,4-b]pyridin-5-one], the “Agonist Activity Human M1 EC50” value in experiment [1] (setting [3]) is “inactive”. For the same molecule, in experiment [2], the Emax amounted to 79% and the EC50 came to 1460 nM.
In the case of `Cc1cc(-c2ccc(C(C)(C)O)cc2)cc(F)c1CN1Cc2cccnc2C1=O` [Compound 118, 6-((3-fluoro-4′-(2-hydroxypropan-2-yl)-5-methyl-[1,1′-biphenyl]-4-yl)methyl)-5,6-dihydro-7H-pyrrolo[3,4-b]pyridin-7-one], in experiment [2], the Emax amounted to 67% and the EC50 was found to be 1650 nM.
